US20100009950A1, “SUBSTITUTED ETHANOLAMINES” (AUSPEX PHARMACEUTICALS, INC., priority 2008, published 2010)

Details: mark in second data column (bin 0%-50%); 1 mg per mL liver microsome protein, 1 μM, 37° C.; vs non-isotopically enriched compound

## N-(2-Hydroxy-2-(4-hydroxy-3-(hydroxymethyl)phenyl)ethyl)-6-(4-d3-phenyl-d8-butoxy)hexan-1-d2-aminium 1-hydroxy-2-naphthoate [Example 5]
  % increase of HLM degradation half-life: + (0%-50%)
